Literature values, collected in patent US20240285702A1, “Compositions comprising a cannabinoid and uses thereof” (Cannabotech Ltd., priority 2021, published 2024).
Converted amounts (≈) assume the structure as drawn.

C=C(C)[C@@H]1CCC(C)=C[C@H]1c1c(O)cc(CCCCC)cc1O [CBD, 2-[(1R,6R)-6-isopropenyl-3-methylcyclohex-2-en-1-yl]-5-pentylbenzene-1,3-diol]
Log P: 5.8 | water solubility: 0.7 µg/mL (≈ 2.23 µM)
